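The compound was tested at five concentrations on cells cultured in 96-well plates, with a 48-hour exposure period. Here, GI50 denotes the concentration required for 50% inhibition of growth.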 Calls of active or inactive are those of the source. Cut-off read from the data, not from the text of the source: active = GI50 up to about 1.1 µM and inactive = higher.
Key:
Assay in all cases: DTP human tumour cell line panel, 48 h
[1] = tested on: NCI/ADR-RES
[2] = tested on: MDA-N
[3] = tested on: SNB-75
[4] = tested on: PC-3
[5] = tested on: HL-60
[6] = tested on: RPMI-8226
[7] = tested on: ACHN
[8] = tested on: M14
[9] = tested on: HT-29
[10] = tested on: NCI-H23
[11] = tested on: MDA-MB-435
[12] = tested on: NCI-H460
[13] = tested on: K562
[14] = tested on: SK-MEL-2
[15] = tested on: U-251
[16] = tested on: SW-620
[17] = tested on: SNB-19
[18] = tested on: LOX IMVI
[19] = tested on: A549
[20] = tested on: CCRF-CEM

Structure (SMILES) | GI50 [1] | GI50 [2] | GI50 [3] | GI50 [4] | GI50 [5] | GI50 [6] | GI50 [7] | GI50 [8] | GI50 [9] | GI50 [10] | GI50 [11] | GI50 [12] | GI50 [13] | GI50 [14] | GI50 [15] | GI50 [16] | GI50 [17] | GI50 [18] | GI50 [19] | GI50 [20]
COC(=O)C1=C(OC(=O)/C(=C/c2ccc(Cl)cc2Cl)c2ccc(Cl)cc2Cl)C(C(=O)OC)[C@@]2(O)[C@@H](C(=O)OC)[C@H](C)C[C@@H]1[C@@H]2C(=O)OC (stereo not given in full) | > 100 µM (inactive) | > 100 µM (inactive) | > 100 µM (inactive) | 7.1 µM (inactive) | > 100 µM (inactive) | > 100 µM (inactive) | > 100 µM (inactive) | > 100 µM (inactive) | > 100 µM (inactive) | > 100 µM (inactive) | > 100 µM (inactive) | > 100 µM (inactive) | > 100 µM (inactive) | > 100 µM (inactive) | > 100 µM (inactive) | > 100 µM (inactive) | > 100 µM (inactive) | > 100 µM (inactive) | 13.5 µM (inactive) | 88.5 µM (inactive)
Cc1cn(CCCCOC(=O)NC(CCCNC(=N)N)C(=O)O)c(=O)[nH]c1=O (stereo not given) | > 100 µM (inactive) | > 100 µM (inactive) | > 100 µM (inactive) | > 100 µM (inactive) | > 100 µM (inactive) | > 100 µM (inactive) | > 100 µM (inactive) | > 100 µM (inactive) | > 100 µM (inactive) | > 100 µM (inactive) | > 100 µM (inactive) | > 100 µM (inactive) | > 100 µM (inactive) | > 100 µM (inactive) | > 100 µM (inactive) | > 100 µM (inactive) | > 100 µM (inactive) | > 100 µM (inactive) | > 100 µM (inactive) | > 100 µM (inactive)
Nc1ccc(C(=O)O)cc1 [AMINOBENZOIC ACID] | > 100 µM (inactive) | > 100 µM (inactive) | > 100 µM (inactive) | > 100 µM (inactive) | > 100 µM (inactive) | > 100 µM (inactive) | > 100 µM (inactive) | > 100 µM (inactive) | > 100 µM (inactive) | > 100 µM (inactive) | > 100 µM (inactive) | > 100 µM (inactive) | > 100 µM (inactive) | > 100 µM (inactive) | > 100 µM (inactive) | > 100 µM (inactive) | > 100 µM (inactive) | > 100 µM (inactive) | > 100 µM (inactive) | > 100 µM (inactive)
C[C@]12CCC(=O)C=C1CC[C@@H]1[C@@H]2CC[C@]2(C)C(=O)[C@H](n3ccnc3)C[C@@H]12 | > 100 µM (inactive) | > 100 µM (inactive) | > 100 µM (inactive) | > 100 µM (inactive) | 21.9 µM (inactive) | > 100 µM (inactive) | > 100 µM (inactive) | > 100 µM (inactive) | 27.4 µM (inactive) | > 100 µM (inactive) | > 100 µM (inactive) | > 100 µM (inactive) | 75.3 µM (inactive) | > 100 µM (inactive) | > 100 µM (inactive) | > 100 µM (inactive) | > 100 µM (inactive) | > 100 µM (inactive) | > 100 µM (inactive) | 58.6 µM (inactive)
O=C1CSC(/C=C/c2ccccc2)N1c1ccc(-n2c(-c3ccccc3)nc3ccccc3c2=O)cc1 (stereo not given) | 59.2 µM (inactive) | > 100 µM (inactive) | 22.6 µM (inactive) | 61.2 µM (inactive) | > 100 µM (inactive) | > 100 µM (inactive) | > 10 µM (inactive) | > 100 µM (inactive) | > 100 µM (inactive) | > 100 µM (inactive) | > 100 µM (inactive) | 87.3 µM (inactive) | > 100 µM (inactive) | > 100 µM (inactive) | > 100 µM (inactive) | > 10 µM (inactive) | > 100 µM (inactive) | 95.3 µM (inactive) | > 100 µM (inactive) | 66.1 µM (inactive)
O=C(CCl)Nc1ccc(C(=O)N/N=C/c2ccc(Cl)cc2)cc1 | 2.37 µM (inactive) | 1.83 µM (inactive) | 14.9 µM (inactive) | 2.02 µM (inactive) | 1.6 µM (inactive) | 2.42 µM (inactive) | 2.59 µM (inactive) | 6.41 µM (inactive) | 1.67 µM (inactive) | 2.44 µM (inactive) | 1.82 µM (inactive) | 2 µM (inactive) | 2.89 µM (inactive) | 5.58 µM (inactive) | 1.78 µM (inactive) | 2.74 µM (inactive) | 7.41 µM (inactive) | 1.48 µM (inactive) | 6.07 µM (inactive) | 1.82 µM (inactive)
Cc1cn(C(=O)NC23CC4CC(CC(C4)C2)C3)c(=O)[nH]c1=O | 27.4 µM (inactive) | 13.2 µM (inactive) | 31.7 µM (inactive) | 35 µM (inactive) | 26.4 µM (inactive) | 25.5 µM (inactive) | 27.9 µM (inactive) | 36.1 µM (inactive) | 33.8 µM (inactive) | 32.1 µM (inactive) | 61.4 µM (inactive) | 42.9 µM (inactive) | 31.6 µM (inactive) | 19.9 µM (inactive) | 43.5 µM (inactive) | 40.6 µM (inactive) | 71.1 µM (inactive) | 27.5 µM (inactive) | 35.9 µM (inactive) | 25.6 µM (inactive)
CCSc1s/c(=N/c2ccc(/N=c3\sc(C)c(SC)s3)cc2)sc1-c1ccc(C)cc1 | > 100 µM (inactive) | > 100 µM (inactive) | 32 µM (inactive) | > 100 µM (inactive) | > 100 µM (inactive) | > 100 µM (inactive) | > 100 µM (inactive) | > 100 µM (inactive) | > 100 µM (inactive) | > 100 µM (inactive) | > 100 µM (inactive) | > 100 µM (inactive) | > 100 µM (inactive) | > 100 µM (inactive) | > 100 µM (inactive) | > 100 µM (inactive) | > 100 µM (inactive) | > 100 µM (inactive) | > 100 µM (inactive) | > 100 µM (inactive)
O=CN1CCN(C(=O)c2cc(Cl)cc(Cl)c2)C1=S | 28.9 µM (inactive) | 18.8 µM (inactive) | 13.3 µM (inactive) | 16.6 µM (inactive) | 10.3 µM (inactive) | 2.44 µM (inactive) | 16.9 µM (inactive) | 15.6 µM (inactive) | 24.3 µM (inactive) | 17.2 µM (inactive) | 14.2 µM (inactive) | 22.5 µM (inactive) | 14.8 µM (inactive) | 16.9 µM (inactive) | 17 µM (inactive) | 19 µM (inactive) | 20.5 µM (inactive) | 7.13 µM (inactive) | 20.8 µM (inactive) | 5.38 µM (inactive)
CCC[C@H](C)[C@H]1NC(=O)[C@@H](NC(=O)[C@@H](CC(C)C)N(C)C(=O)C2CCCN2C(=O)[C@H](C)O)[C@@H](C)OC(=O)[C@H](CC(C)C)N(C)C(=O)[C@@H]2CCCN2C(=O)[C@H](CC(C)C)NC(=O)[C@@H](C)C(=O)[C@H](C(C)C)OC(=O)C[C@@H]1O (stereo not given in full) | 0.189 µM (active) | < 0.0025 µM (active) | < 0.0025 µM (active) | < 0.0025 µM (active) | < 0.0025 µM (active) | < 0.0025 µM (active) | < 0.0025 µM (active) | < 0.0025 µM (active) | < 0.0025 µM (active) | < 0.0025 µM (active) | < 0.0025 µM (active) | < 0.0025 µM (active) | < 0.0025 µM (active) | < 0.0025 µM (active) | < 0.0025 µM (active) | < 0.0025 µM (active) | < 0.0025 µM (active) | < 0.0025 µM (active) | < 0.0025 µM (active) | < 0.0025 µM (active)
COc1ccc(Oc2cnn(C(Br)(Br)C(C)=O)c(=O)c2Br)cc1 | 18.5 µM (inactive) | 10.3 µM (inactive) | 15 µM (inactive) | 14.1 µM (inactive) | 1.97 µM (inactive) | 3.14 µM (inactive) | 13.6 µM (inactive) | 13.9 µM (inactive) | 15.3 µM (inactive) | 17.9 µM (inactive) | 10 µM (inactive) | 18.8 µM (inactive) | 3.85 µM (inactive) | 16.3 µM (inactive) | 13.9 µM (inactive) | 4.56 µM (inactive) | 24.5 µM (inactive) | 11 µM (inactive) | 24 µM (inactive) | 1.82 µM (inactive)

Source: ChEMBL document CHEMBL1201862, “PubChem BioAssay data set” (2004)
